{
  "source": "patent US6762172B1",
  "about": "“Water-stabilized organosilane compounds and methods for using the same” (Nova Biogenetics, Inc., priority 1997, dated 2004)",
  "origin": "cited, not measured here",
  "details": "mixture with water, non-stabilized",
  "data": [
    {"smiles": "CCCCCCCCCCCCCCCCCC[N+](C)(C)CCC[Si](OC)(OC)OC.[Cl-]", "note": "[3-(trimethoxysilyl)propyl-dimethyloctadecyl ammonium chloride]", "values": [
      {"measurement": "begins to lose effectiveness", "result": "four to eight"}
    ]}
  ]
}
